This is an account of results in patent US7906491B2 (Univisitair Medisch Centrum Utrecht, priority 2002, dated 2011).

Assay [1] has as its system Rap1. Kind of assay: Rap1 activation assay (read-out for Epac) in NIH3T3-A14-Epac1 cells. The class given is cell-based. As to conditions: 15 min. On the procedure: Upper panel: NIH3T3-A14-Epac1 cells were treated for 15 min with 8-Br-cAMP, and cell lysates were analyzed for activation of Rap1 and phosphorylation of CREB. Lower panel: NIH3T3-A14-Epac1 cells were treated in duplicate for 15 min with increasing concentrations of 8-pCPT-2′-O-Me-cAMP. Cells were lysed and equal amounts of cell lysate were incubated with precoupled GST-RalGDSRBD and Rap1 was assayed by immunoblotting with Rap1 antibody.
Therefore, 8-CPT-2′-O-Me-cAMP was tested in NIH3T3-A14-Epac1 cells for the activation of Epac, using Rap1 as a read-out, and of PKA, using phosphorylation of the common PKA substrate CREB 29 as a read-out.
NIH3T3-A14 cells, stably expressing Epac1, were grown in DMEM with 10% fetal calf serum and 2 μg/ml puromycin. NIH-OVCAR3 (Ovcar3) cells were maintained in RPMI with 10% fetal calf serum. Transient transfection of Ovcar3 cells was performed using the FuGENE 6 transfection reagent (Roche Diagnostics, Mannheim, Germany) according to the manufacturer's procedures, using 6 μg total DNA including a CMV-luciferase plasmid (0.2 μg).
Rap activation assays were performed as described previously (16-18). Briefly, cells were lysed in lysis buffer containing 10% glycerol, 1% Nonidet P-40, 50 mM Tris-Cl pH7.5, 200 mM NaCl, 2mM MgCl2, 1 μM leupeptin, 0.1 μM aprotinin, 5 mM NaF, 1 mM NaVO3. Lysates were clarified by centrifugation and incubated with GST-tagged RalGDS-RBD pre-coupled to glutathione beads to specifically pull down the GTP-bound forms of Rap1. Samples were incubated for 1 hr at 4° C. while tumbling. Beads were washed four times in lysis buffer, and the remaining fluid was removed with an insulin syringe. Proteins were eluted with Laemmli sample buffer and analyzed by sodium dodecyl sulphate (SDS)-polyacrylamide gel electrophoresis and Western blotting using Rap1 antibodies. As a control, Rap1 levels in whole cell lysates were determined.

For assay [2], the system named is INS-1 insulin-secreting cells. As to conditions: cited from earlier work.
For a further assay, the system named is PKAI. Kind of assay: Relative affinity for PKAI (cAMP = 1), in vitro. It is filed as binding. Particulars: relative to cAMP = 1.
For assay [3], the system named is type II holoenzyme of PKA (PKAII). In words: In vitro activation of cAMP-dependent protein kinase, type II holoenzyme (kemptide substrate). It is filed as biochemical. As to conditions: compared to cAMP, FIG. 5. On the procedure:
Cyclic AMP dependent protein kinase I and II were reconstituted from isolated subunits and assayed for kinase activity using […] kemptide as substrate, as described previously (15).

Assay [4] concerns extracellular signal-regulated kinase (ERK). In words: ERK activation / inactivation in vivo (cells). The class given is cell-based.
In assay [5] the test system is Rap1. In words: Rap1 activation assay in Ovcar3 cells. The class given is cell-based. Here is the method:
A: 8-pCPT-2′-O-Me-cAMP stimulates cell adhesion. Upper panel: quantification of Ovcar3 cells adhering to fibronectin after treatment with increasing concentrations of 8-pCPT-2′-O-Me-cAMP. Lower panel: Ovcar3 cells were treated with increasing concentrations of 8-pCPT-2′-O-Me-cAMP for 15 min, cells were lysed and analyzed for activation of Rap1 (upper blot) and CREB (lower blot). Total Rap1 levels are shown (middle blot). B: 8-pCPT-2′-O-Me-cAMP increases the rate of cell adhesion. Upper panel: quantification of Ovcar3 cells adhering to fibronectin at various time points. Lower panel: cells were treated with 60 μM 8-pCPT-2′-O-Me-cAMP for the indicated times. Cell lysates were analyzed for activation of Rap1 (upper blot) and CREB (lower blot). Total levels of Rap1 in cell lysates are shown (middle blot). C: Ovcar3 cells were either pre-incubated at 37° C. for 30 min with the PKA inhibitor H-89 (10 μM) 30 min prior to seeding onto the wells (‘Short’) or H-89 was added 30 min prior to trypsinization and during the recovery period (‘Long’) and seeded onto wells in the absence or presence of 8-pCPT-2′-O-Me-cAMP (100 μM). Cells were allowed to adhere for 1 h. D, cAMP-induced adhesion to fibronectin is blocked by inhibitors of Rap1. Left panel: Ovcar3 cells were transiently transfected with either mock DNA, increasing concentrations of HA-Rap1GAP II (0.5, 1, 2 or 6 μg, respectively), HA-Rap1GAPI (6 μg) or HA-RBD of RalGDS (6 μg), respectively. Cells were treated with 8-Br-cAMP or 8-pCPT-2′-O-Me-cAMP and adhesion to fibronectin was determined. Right upper panel: luciferase counts of total input cells per well in the above experiment are shown. Right lower panel: expression of HA-Rap1GAPs in the above experiment is shown.
Rap activation assays were performed as described previously (16-18). […] Proteins were eluted with Laemmli sample buffer and analyzed by sodium dodecyl sulphate (SDS)-polyacrylamide gel electrophoresis and Western blotting using Rap1 antibodies. As a control, Rap1 levels in whole cell lysates were determined.

On to `CO[C@@H]1[C@@H]2OP(=O)(O)OC[C@H]2O[C@H]1n1c(Sc2ccc(Cl)cc2)nc2c(N)ncnc21` [Compound I-007, 8-(4-chloro-phenylthio)-2′-O-methyladenosine-3′,5′-cyclic monophosphate], for which the “activation of Rap1” value in the assay on Rap1 [1] (8-Br-cAMP 1 mM) is “induced the activation of Rap1 only”. Moreover, the “concentration at which Rap1 is already activated” value with Rap1 [1] (dose-response) was 10 µM. Also, in assay [2], the exocytosis result is “induces exocytosis” and the “mobilization of Ca2+ from intracellular Ca2+ stores via Epac-mediated CICR” value is “can induce mobilization of Ca^2+”. In the assay on PKAI, the “Relative affinity CAMP = 1 PKAI” value stood at 0.009. The “ability to activate the type II holoenzyme of PKA” value in assay [3] is “greatly impaired”. Further, in assay [4], the “activation and inactivation of ERK” value was “affected neither the activation nor the inactivation”. In addition, the “Rap1 activation in time-course” value with Rap1 [5] (60 μM, FIG. 7B) is “rapid and sustained Rap1 activation”. In the assay with Rap1 [5] (Homo sapiens, OVCAR-3, 0.25 h, 15 min, FIG. 7A), the concentration giving a half-maximal response (EC50) (usually the concentration that produces a half-maximal response) is around 30 µM.
